What was measured:
human SGLT2 = target: T1, human SGLT2 (Homo sapiens, UniProt P31639); experiment: Methyl-α-D-[U-14C]glucopyranoside uptake assay, cells stably expressing human SGLT2; format: cell-based; conditions: HEK293.ETN cells expressing human SGLT2, 1.5 h incubation
T1 construct: A full-length cDNA clone expressing human SGLT2 (GenScript Corporation) was subcloned
T1 sequence (P31639 1-672): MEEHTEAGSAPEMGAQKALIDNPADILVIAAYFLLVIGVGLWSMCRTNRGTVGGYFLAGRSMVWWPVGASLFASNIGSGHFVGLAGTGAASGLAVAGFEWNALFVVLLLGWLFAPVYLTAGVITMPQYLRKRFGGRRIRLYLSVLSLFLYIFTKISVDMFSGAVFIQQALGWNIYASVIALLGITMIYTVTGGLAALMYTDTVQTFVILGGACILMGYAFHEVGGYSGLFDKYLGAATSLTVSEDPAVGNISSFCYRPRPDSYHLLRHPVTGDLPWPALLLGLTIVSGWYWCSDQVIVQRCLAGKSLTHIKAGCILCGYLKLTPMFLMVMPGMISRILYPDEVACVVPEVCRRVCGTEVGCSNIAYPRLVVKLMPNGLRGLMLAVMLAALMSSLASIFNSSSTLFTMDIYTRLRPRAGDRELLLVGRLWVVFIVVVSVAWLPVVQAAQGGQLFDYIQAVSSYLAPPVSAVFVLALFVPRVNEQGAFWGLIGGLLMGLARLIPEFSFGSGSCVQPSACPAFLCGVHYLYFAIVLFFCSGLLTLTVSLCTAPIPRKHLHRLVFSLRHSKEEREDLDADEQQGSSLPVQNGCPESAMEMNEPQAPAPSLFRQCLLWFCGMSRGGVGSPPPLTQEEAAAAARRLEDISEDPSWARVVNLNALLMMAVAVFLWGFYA
Source text: A full-length cDNA clone expressing human SGLT2 (GenScript Corporation) was subcloned into […] and Not I sites of pEAK15 expression vector. Clones harboring the cDNA inserts were identified by restriction analysis.
Plasmid containing human SGLT2 was linearized with Nsi I and purified by agarose gel electrophoresis. Using Lipofectamine 2000 Transfection Reagent (Invitrogen Corporation), DNA was transfected into HEK293.ETN cells and cultured in Dulbecco's Modified Eagle Medium (DMEM) containing 10% fetal bovine serum (FBS) at 37° C. under 5% CO2 for 24 h. Transfectants were selected in the same growth medium supplemented with puromycin (Invitrogen Corporation) for two weeks. Puromycin-resistant cells were recovered and seeded on a fresh 96-well plate (single cell per well) and cultured in the presence of puromycin until cells became confluent. Puromycin-resistant clones were evaluated for SGLT2 activity in the methyl-α-D-[U-^14C]glucopyranoside uptake assay described below.
(§1) Cells expressing SGLT1 or SGLT2 were seeded on 96-well ScintiPlate scintillating plates (PerkinElmer, Inc.) in DMEM containing 10% FBS (1×10^5 cells per well in 100 μL medium) incubated at 37° C. under 5% CO2 for 48 h prior to the assay. Cells were washed twice with 150 μL of either sodium buffer (137 mM NaCl, 5.4 mM KCl, 2.8 mM CaCl2, 1.2 mM MgCl2, 10 mM tris(hydroxymethyl)aminomethane/N2-hydroxyethylpiperazine-N′-ethanesulfonic acid [Tris/Hepes], pH 7.2) or sodium-free buffer (137 mM N-methyl-glucamine, 5.4 mM KCl, 2.8 mM CaCl2, 1.2 mM MgCl2, 10 mM Tris/Hepes, pH 7.2). Test compound in 50 μL each of sodium or sodium-free buffer containing 40 μCi/L methyl-α-D-[U-^14C]glucopyranoside (Amersham Biosciences/GE Healthcare), either with (symbols in parentheses) or without (symbols without parentheses) 25% human serum, was added per well of a 96-well plate and incubated at 37° C. with shaking for either 2 h (SGLT1 assay) or 1.5 h (SGLT2 assay). Cells were washed twice with 150 μL of wash buffer (137 mM N-methylglucamine, 10 mM Tris/Hepes, pH 7.2) and methyl-α-D-[U-^14C]glucopyranoside uptake was quantitated using a TopCount scintillation counter (PerkinElmer, Inc.). Sodium-dependent glucopyranoside uptake was measured by subtracting the values obtained with sodium-free buffer from those obtained using sodium buffer (average of triplicate determinations).

human SGLT1 = target: T2, human SGLT1 (Homo sapiens, UniProt P13866); experiment: Methyl-α-D-[U-14C]glucopyranoside uptake assay, COS-7 cells expressing human SGLT1; format: cell-based; conditions: COS-7 cells expressing human SGLT1, 2 h incubation
T2 construct: Full-length human SGLT1 cDNA on pDream2.1 expression vector was obtained from GenScript Corporation; host or cells: COS-7 cells (American Type Culture Collection)
T2 sequence (P13866 1-664): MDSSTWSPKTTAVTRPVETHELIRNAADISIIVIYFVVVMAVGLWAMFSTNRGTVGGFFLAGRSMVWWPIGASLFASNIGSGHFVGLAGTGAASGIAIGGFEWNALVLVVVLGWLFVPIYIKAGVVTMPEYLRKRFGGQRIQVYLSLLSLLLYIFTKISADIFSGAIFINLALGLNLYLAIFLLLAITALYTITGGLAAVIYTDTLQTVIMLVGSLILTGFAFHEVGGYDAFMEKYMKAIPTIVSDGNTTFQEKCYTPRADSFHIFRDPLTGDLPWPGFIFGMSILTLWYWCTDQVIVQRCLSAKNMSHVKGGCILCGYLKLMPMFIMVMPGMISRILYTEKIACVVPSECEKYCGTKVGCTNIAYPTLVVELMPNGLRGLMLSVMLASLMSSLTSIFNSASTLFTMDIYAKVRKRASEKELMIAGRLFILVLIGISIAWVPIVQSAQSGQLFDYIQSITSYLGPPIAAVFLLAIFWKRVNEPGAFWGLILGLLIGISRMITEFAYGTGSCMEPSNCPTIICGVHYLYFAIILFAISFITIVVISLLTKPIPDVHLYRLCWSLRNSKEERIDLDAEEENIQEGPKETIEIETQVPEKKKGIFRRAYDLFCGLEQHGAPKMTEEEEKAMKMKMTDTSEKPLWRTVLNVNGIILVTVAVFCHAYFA
Experimental: Full-length human SGLT1 cDNA on pDream2.1 expression vector was obtained from GenScript Corporation and propagated in Escherichia coli strain DH5α using Luria-Bertani (LB) medium containing ampicillin. Plasmid DNA was isolated using the QIAGEN Plasmid Midi Kit (QIAGEN Inc.). […] Transfected cells were stored in DMEM containing 10% dimethyl sulfoxide (DMSO) at −80° C.
as §1

[1] = without human serum (symbols without parentheses)
[2] = with 25% human serum (symbols in parentheses)

Row | SMILES | IC50 (human SGLT2; [1]) [µM] | IC50 (human SGLT1; [1]) [µM] | IC50 (human SGLT2; [2]) [µM] | IC50 (human SGLT1; [2]) [µM]
1 | CCc1ccc(Cc2cc([C@@H]3O[C@H](CO)[C@@H](O)[C@H](O)[C@H]3O)c(CCOCCO)cc2Cl)cc1 [Compound AG, (2S,3R,4R,5S,6R)-2-(4-chloro-5-(4-ethylbenzyl)-2-(2-(2-hydroxyethoxy)ethyl)phenyl)-6-(hydroxymethyl)tetrahydro-2H-pyran-3,4,5-triol] | < 1 | 1 to 10 | – | –
2 | C#CCOCc1cc(Cl)c(Cc2ccc(CC)cc2)cc1[C@@H]1O[C@H](COC(C)=O)[C@@H](O)[C@H](O)[C@H]1O [Compound BD, ((2R,3S,4R,5R,6S)-6-(4-chloro-5-(4-ethylbenzyl)-2-((prop-2-ynyloxy)methyl)phenyl)-3,4,5-trihydroxytetrahydro-2H-pyran-2-yl)methyl acetate] | < 1 | > 10 | – | –
3 | C=CCOCCc1cc(Cl)c(Cc2ccc(CC)cc2)cc1[C@@H]1O[C@H](CO)[C@@H](O)[C@H](O)[C@H]1O [Compound AD, (2S,3R,4R,5S,6R)-2-(2-(2-(allyloxy)ethyl)-4-chloro-5-(4-ethylbenzyl)phenyl)-6-(hydroxymethyl)tetrahydro-2H-pyran-3,4,5-triol] | < 1 | > 10 | – | –
4 | CC#CCOCCCc1cc(Cl)c(Cc2ccc(OCC)cc2)cc1[C@@H]1O[C@H](CO)[C@@H](O)[C@H](O)[C@H]1O [Compound BO, (2S,3R,4R,5S,6R)-2-(2-(3-(but-2-ynyloxy)propyl)-4-chloro-5-(4-ethoxybenzyl)phenyl)-6-(hydroxymethyl)tetrahydro-2H-pyran-3,4,5-triol] | – | – | < 1 | > 10
5 | C#CCOCc1cc(Cl)c(Cc2ccc(OCC)cc2)cc1[C@@H]1O[C@H](CO)[C@@H](O)[C@H](O)[C@H]1O [Compound CC, (2S,3R,4R,5S,6R)-2-(4-chloro-5-(4-ethoxybenzyl)-2-((prop-2-ynyloxy)methyl)phenyl)-6-(hydroxymethyl)tetrahydro-2H-pyran-3,4,5-triol] | – | – | < 1 | > 10
6 | C#CCOCCc1cc(Cl)c(Cc2ccc(OCC)cc2)cc1[C@@H]1O[C@H](CO)[C@@H](O)[C@H](O)[C@H]1O [Compound AO, (2S,3R,4R,5S,6R)-2-(4-chloro-5-(4-ethoxybenzyl)-2-(2-(prop-2-ynyloxy)ethyl)phenyl)-6-(hydroxymethyl)tetrahydro-2H-pyran-3,4,5-triol] | < 1 | > 10 | – | –
7 | CCc1ccc(Cc2cc([C@@H]3O[C@H](CO)[C@@H](O)[C@H](O)[C@H]3O)c(OCCOC3CCCC3)cc2Cl)cc1 [Compound BG, (2S,3R,4R,5S,6R)-2-(4-chloro-2-(2-(cyclopentyloxy)ethoxy)-5-(4-ethylbenzyl)phenyl)-6-(hydroxymethyl)tetrahydro-2H-pyran-3,4,5-triol] | – | – | < 1 | > 10

Next, values leading:

Row | IC50 (human SGLT2; [1]) [µM] | IC50 (human SGLT1; [1]) [µM] | IC50 (human SGLT2; [2]) [µM] | IC50 (human SGLT1; [2]) [µM] | SMILES
8 | < 1 | > 10 | – | – | CCc1ccc(Cc2cc([C@@H]3O[C@H](CO)[C@@H](O)[C@H](O)[C@H]3O)c(COCC(O)COC)cc2Cl)cc1 (stereo partly drawn) [Compound W, (2S,3R,4R,5S,6R)-2-(4-chloro-5-(4-ethylbenzyl)-2-((2-hydroxy-3-methoxypropoxy)methyl)phenyl)-6-(hydroxymethyl)tetrahydro-2H-pyran-3,4,5-triol]
9 | < 1 | > 10 | – | – | CCc1ccc(Cc2cc([C@@H]3O[C@H](CO)[C@@H](O)[C@H](O)[C@H]3O)c(COCCCO)cc2Cl)cc1 [Compound AL, (2S,3R,4R,5S,6R)-2-(4-chloro-5-(4-ethylbenzyl)-2-((3-hydroxypropoxy)methyl)phenyl)-6-(hydroxymethyl)tetrahydro-2H-pyran-3,4,5-triol]
10 | – | – | < 1 | > 10 | CC#CCOCc1cc(Cl)c(Cc2ccc(CC)cc2)cc1[C@@H]1O[C@H](CO)[C@@H](O)[C@H](O)[C@H]1O [Compound AX, (2S,3R,4R,5S,6R)-2-(2-((but-2-ynyloxy)methyl)-4-chloro-5-(4-ethylbenzyl)phenyl)-6-(hydroxymethyl)tetrahydro-2H-pyran-3,4,5-triol]
11 | < 1 | 1 to 10 | – | – | CCc1ccc(Cc2cc([C@@H]3O[C@H](CO)[C@@H](O)[C@H](O)[C@H]3O)c(COCCO)cc2Cl)cc1 [Compound O, (2S,3R,4R,5S,6R)-2-(4-chloro-5-(4-ethylbenzyl)-2-((2-hydroxyethoxy)methyl)phenyl)-6-(hydroxymethyl)tetrahydro-2H-pyran-3,4,5-triol]
12 | – | – | < 1 | > 10 | CC#CCOCc1cc(Cl)c(Cc2ccc(OC)cc2)cc1[C@@H]1O[C@H](CO)[C@@H](O)[C@H](O)[C@H]1O [Compound BA, (2S,3R,4R,5S,6R)-2-(2-((but-2-ynyloxy)methyl)-4-chloro-5-(4-methoxybenzyl)phenyl)-6-(hydroxymethyl)tetrahydro-2H-pyran-3,4,5-triol]
13 | < 1 | > 10 | – | – | CCc1ccc(Cc2cc([C@@H]3O[C@H](CO)[C@@H](O)[C@H](O)[C@H]3O)c(COCC(C)O)cc2Cl)cc1 (stereo partly drawn) [Compound M, (2S,3R,4R,5S,6R)-2-(4-chloro-5-(4-ethylbenzyl)-2-((2-hydroxypropoxy)methyl)phenyl)-6-(hydroxymethyl)tetrahydro-2H-pyran-3,4,5-triol]
14 | < 1 | > 10 | – | – | CCc1ccc(Cc2cc([C@@H]3O[C@H](CO)[C@@H](O)[C@H](O)[C@H]3O)c(COCC(O)CO)cc2Cl)cc1 (stereo partly drawn) [Compound L, (2S,3R,4R,5S,6R)-2-(4-chloro-2-((2,3-dihydroxypropoxy)methyl)-5-(4-ethylbenzyl)phenyl)-6-(hydroxymethyl)tetrahydro-2H-pyran-3,4,5-triol]
15 | < 1 | 1 to 10 | – | – | CCc1ccc(Cc2cc([C@@H]3O[C@H](CO)[C@@H](O)[C@H](O)[C@H]3O)c(COCC(C)F)cc2Cl)cc1 (stereo partly drawn) [Compound T, (2S,3R,4R,5S,6R)-2-(4-chloro-5-(4-ethylbenzyl)-2-((2-fluoropropoxy)methyl)phenyl)-6-(hydroxymethyl)tetrahydro-2H-pyran-3,4,5-triol]
